Assay results published in patent US10975078B2, “Fused indazole pyridone compounds as antivirals” (priority 2017, dated 2021).

Tested on: HBsAg secretion, HepG2-Clone42 cells (Tet-inducible HBV-expressing, HBV ayw strain)
Assay: HBsAg assay (HBsAg ELISA, secreted HBV sAg from HepG2-Clone42 cells)
Format: cell-based
Settings: Hepatitis B virus, read-out: HBsAg (nM), EC50 = concentration at which HBsAg secretion was reduced 50% compared to DMSO control
Procedure: HepG2-Clone42, a Tet-inducible HBV-expressing cell line with a stably integrated 1.3 mer copy of the HBV ayw strain, was generated based on the Tet-inducible HepAD38 cell line with slight modifications. Ladner S K, et al., Antimicrobial Agents and Chemotherapy. 41(8):1715-1720 (1997). HepG2-Clone42 cells were cultured in DMEM/F-12+Glutamax™ (Life Technologies, Carlsbad, Calif., USA), supplemented with 10% fetal bovine serum (Life Technologies), G-418 (Corning, Manassas, Va., USA) at a final concentration of 0.5 mg/mL, and 5 μg/mL Doxycycline (Sigma, St. Louis, Mo., USA) and maintained in 5% CO2 at 37° C.
HepG2-Clone42 cells were seeded into black clear-bottom 96-well plates at a concentration of 6.0×10^4 cells/well. 24 hours post-seeding, the cells were treated with 200 μl/well of media containing five-fold serial dilutions of compounds in DMSO. DMSO alone was used as the no drug control. The final DMSO concentration in all wells was 0.5%.
The HBsAg ELISA kit (Alpha Diagnostic International, San Antonio, Tex., USE, Catalog #4110) was used to determine the level (semi-quantitative) of secreted HBV sAg. The HBSAg ELISA assay was performed following the manufacturer's protocol as described.
Step 1. Pipet 100 μL each of compound or DMSO treated samples into HBsAg ELISA plates. Seal plates and incubate at room temp for 60 minutes.
Step 2. Aspirate samples and wash three times with Wash Buffer. Dispense 100 μL of antibody-HRP conjugate to each well. Incubate at room temp for 30 minutes.
Step 3. Aspirate samples and wash three times with Wash Buffer. Add 100 μL of TMB Substrate to all wells and incubate 15 minutes at room temp.
Step 4. Dispense 100 μL of Stop Solution to each well. Measure absorbance of ELISA plate at 450 nm.
Dose-response curves were generated and the EC50 value was defined as the compound concentration at which HBsAg secretion was reduced 50% compared to the DMSO control.
EC50 values were determined as follows:
Determine the percent of HBsAg secretion inhibition. Calculate the percent inhibition on of HBsAg secretion inhibition using the following equation: […]
where XC is the absorbance signal from compound-treated well; MB is average absorbance signal (background signal) for column 12 (no cells+HBsAg ELISA sample buffer) and MD is average absorbance signal from DMSO-treated wells. Then calculate EC50 values by non-linear regression using a four parameter curve logistic equation.
The curve fit model employed is XLFit Dose Response One Site Model 204: y=(A+((B−A)/(1+(10^((C−x)*D))))) where A is the minimum y value, B is the maximum y value, C is the log EC50 value, and D is the slope factor. In the following table+≥100 nM; 100 nM>++≥1 nM; 1 nM>+++

Question: For CN(C)CCCOc1cccc2c3n(nc12)CC(C(C)(C)C)n1cc(C(=O)O)c(=O)cc1-3 (racemic) [Example 2.43, 6-(tert-butyl)-10-(3-(dimethylamino)propoxy)-2-oxo-6,7-dihydro-2H-pyrido[2′,1′:3,4]pyrazino[1,2-b]indazole-3-carboxylic Acid], which EC50 is on record?
Answer: > 100 nM

Question: Which EC50 does the source give for CC(C)(C)C1Cn2nc3c(OCC4CCOCC4)cccc3c2-c2cc(=O)c(C(=O)O)cn21 (racemic) [Example 2.44, 6-(tert-butyl)-2-oxo-10-((tetrahydro-2H-pyran-4-yl)methoxy)-6,7-dihydro-2H-pyrido[2′,1′:3,4]pyrazino[1,2-b]indazole-3-carboxylic Acid] here?
Answer: 1 to 100 nM

Question: With CC1(COc2cccc3c4n(nc23)CC(C(C)(C)C)n2cc(C(=O)O)c(=O)cc2-4)COC1 (racemic) [Example 2.45, 6-(tert-butyl)-10-((3-methyloxetan-3-yl)methoxy)-2-oxo-6,7-dihydro-2H-pyrido[2′,1′:3,4]pyrazino[1,2-b]indazole-3-carboxylic Acid] as the compound, how does the EC50 read?
Answer: 1 to 100 nM

Question: How did the EC50 turn out when CC(C)(C)C1Cn2nc3c(OCC4(C#N)CC4)cccc3c2-c2cc(=O)c(C(=O)O)cn21 (racemic) [Example 2.46, 6-(tert-butyl)-10-((1-cyanocyclopropyl)methoxy)-2-oxo-6,7-dihydro-2H-pyrido[2′,1′:3,4]pyrazino[1,2-b]indazole-3-carboxylic Acid] was run?
Answer: 1 to 100 nM

Question: With COc1ccc2c3n(nc2c1)CC(C(C)(C)C)n1cc(C(=O)O)c(=O)cc1-3 (single isomer, unassigned) [Example 1.2-I, 6-(tert-butyl)-11-methoxy-2-oxo-6,7-dihydro-2H-pyrido[2′,1′:3,4]pyrazino[1,2-b]indazole-3-carboxylic acid] as the compound, how does the EC50 read?
Answer: 1 to 100 nM

Question: COc1ccc2nn3c(c2c1)-c1cc(=O)c(C(=O)O)cn1C(C(C)(C)C)C3 (single isomer, unassigned) [Example 1.3-II, 6-(tert-butyl)-12-methoxy-2-oxo-6,7-dihydro-2H-pyrido[2′,1′:3,4]pyrazino[1,2-b]indazole-3-carboxylic acid] was tested. Which EC50 did it give?
Answer: 1 to 100 nM

Question: How did the EC50 turn out when COCCCOc1cccc2c3n(nc12)CC(C(C)(C)C)n1cc(C(=O)O)c(=O)cc1-3 (single isomer, unassigned) [Example 2.1-I, 6-(tert-butyl)-10-(3-methoxypropoxy)-2-oxo-6,7-dihydro-2H-pyrido[2′,1′:3,4]pyrazino[1,2-b]indazole-3-carboxylic Acid] was run?
Answer: < 1 nM

Question: With CC(C)(C)C1Cn2nc3c(OC[C@@H]4CCC(=O)N4)cccc3c2-c2cc(=O)c(C(=O)O)cn21 (single isomer, unassigned) [Example 2.33-I] as the compound, how does the EC50 read?
Answer: > 100 nM

Question: Which EC50 does the source give for CC(C)(C)C1Cn2nc3c(OC[C@H]4CCC(=O)N4)cccc3c2-c2cc(=O)c(C(=O)O)cn21 (single isomer, unassigned) [Example 2.34-I] here?
Answer: > 100 nM

Question: How did the EC50 turn out when COCC(C)Oc1cccc2c3n(nc12)CC(C(C)(C)C)n1cc(C(=O)O)c(=O)cc1-3 (single isomer, unassigned) [Example 2.35-I, 6-(tert-butyl)-10-((1-methoxypropan-2-yl)oxy)-2-oxo-6,7-dihydro-2H-pyrido[2′,1′:3,4]pyrazino[1,2-b]indazole-3-carboxylic Acid] was run?
Answer: 1 to 100 nM

Same assay, conditions: read-out: HBsAg, EC50 = concentration at which HBsAg secretion was reduced 50% compared to DMSO control

Question: With COc1cccc2c3n(nc12)CC(C(C)(C)C)n1cc(C(=O)O)c(=O)cc1-3 (single isomer, unassigned) [Example 1.1-I, 6-(tert-butyl)-10-methoxy-2-oxo-6,7-dihydro-2H-pyrido[2′,1′:3,4]pyrazino[1,2-b]indazole-3-carboxylic acid] as the compound, how does the EC50 read?
Answer: < 1 nM

Question: COc1cccc2c3n(nc12)CC(C(C)(C)C)n1cc(C(=O)O)c(=O)cc1-3 (single isomer, unassigned) [Example 1.1-II, 6-(tert-butyl)-10-methoxy-2-oxo-6,7-dihydro-2H-pyrido[2′,1′:3,4]pyrazino[1,2-b]indazole-3-carboxylic acid] was tested. Which EC50 did it give?
Answer: > 100 nM

Question: COc1ccc2c3n(nc2c1)CC(C(C)(C)C)n1cc(C(=O)O)c(=O)cc1-3 (single isomer, unassigned) [Example 1.2-II, 6-(tert-butyl)-11-methoxy-2-oxo-6,7-dihydro-2H-pyrido[2′,1′:3,4]pyrazino[1,2-b]indazole-3-carboxylic acid] was tested. Which EC50 did it give?
Answer: 1 to 100 nM

Question: With COc1ccc2nn3c(c2c1)-c1cc(=O)c(C(=O)O)cn1C(C(C)(C)C)C3 (single isomer, unassigned) [Example 1.3-I, 6-(tert-butyl)-12-methoxy-2-oxo-6,7-dihydro-2H-pyrido[2′,1′:3,4]pyrazino[1,2-b]indazole-3-carboxylic acid] as the compound, how does the EC50 read?
Answer: 1 to 100 nM

Question: How did the EC50 turn out when COc1cccc2nn3c(c12)-c1cc(=O)c(C(=O)O)cn1C(C(C)(C)C)C3 (single isomer, unassigned) [Example 1.4-I, 6-(tert-butyl)-13-methoxy-2-oxo-6,7-dihydro-2H-pyrido[2′,1′:3,4]pyrazino[1,2-b]indazole-3-carboxylic acid] was run?
Answer: > 100 nM

Question: How did the EC50 turn out when COc1cccc2nn3c(c12)-c1cc(=O)c(C(=O)O)cn1C(C(C)(C)C)C3 (single isomer, unassigned) [Example 1.4-II, 6-(tert-butyl)-13-methoxy-2-oxo-6,7-dihydro-2H-pyrido[2′,1′:3,4]pyrazino[1,2-b]indazole-3-carboxylic acid] was run?
Answer: 1 to 100 nM

Question: With CC(C)(C)C1Cn2nc3ccccc3c2-c2cc(=O)c(C(=O)O)cn21 (single isomer, unassigned) [Example 1.5-I, 6-(tert-butyl)-2-oxo-6,7-dihydro-2H-pyrido[2′,1′:3,4]pyrazino[1,2-b]indazole-3-carboxylic acid] as the compound, how does the EC50 read?
Answer: 1 to 100 nM

Question: CC(C)(C)C1Cn2nc3ccccc3c2-c2cc(=O)c(C(=O)O)cn21 (single isomer, unassigned) [Example 1.5-II, 6-(tert-butyl)-2-oxo-6,7-dihydro-2H-pyrido[2′,1′:3,4]pyrazino[1,2-b]indazole-3-carboxylic acid] was tested. Which EC50 did it give?
Answer: > 100 nM

Question: COCCCOc1cccc2c3n(nc12)CC(C(C)(C)C)n1cc(C(=O)O)c(=O)cc1-3 (single isomer, unassigned) [Example 2.1-II, 6-(tert-butyl)-10-(3-methoxypropoxy)-2-oxo-6,7-dihydro-2H-pyrido[2′,1′:3,4]pyrazino[1,2-b]indazole-3-carboxylic Acid] was tested. Which EC50 did it give?
Answer: 1 to 100 nM

Question: How did the EC50 turn out when COCCOc1cccc2c3n(nc12)CC(C(C)(C)C)n1cc(C(=O)O)c(=O)cc1-3 (single isomer, unassigned) [Example 2.2-I, 6-(tert-butyl)-10-(2-methoxyethoxy)-2-oxo-6,7-dihydro-2H-pyrido[2′,1′:3,4]pyrazino[1,2-b]indazole-3-carboxylic Acid] was run?
Answer: > 100 nM

Question: Which EC50 does the source give for COCCOc1cccc2c3n(nc12)CC(C(C)(C)C)n1cc(C(=O)O)c(=O)cc1-3 (single isomer, unassigned) [Example 2.2-II, 6-(tert-butyl)-10-(2-methoxyethoxy)-2-oxo-6,7-dihydro-2H-pyrido[2′,1′:3,4]pyrazino[1,2-b]indazole-3-carboxylic Acid] here?
Answer: < 1 nM

Question: Which EC50 does the source give for CC(C)(C)C1Cn2nc3c(OC[C@@H]4CCC(=O)N4)cccc3c2-c2cc(=O)c(C(=O)O)cn21 (single isomer, unassigned) [Example 2.33-II] here?
Answer: > 100 nM

Question: How did the EC50 turn out when CC(C)(C)C1Cn2nc3c(OC[C@H]4CCC(=O)N4)cccc3c2-c2cc(=O)c(C(=O)O)cn21 (single isomer, unassigned) [Example 2.34-II] was run?
Answer: > 100 nM
